Measured values reported in patent US7205119B2, “HA-1 antigen” (Rijksuniversiteit te Leiden, priority 1997, dated 2007).
Where no end group is shown, it is not given here.

Columns and labels:
[1] = tested on: recombinant HLA-A2.1 and b2-microglobulin; experiment: HLA-A2.1 peptide binding assay (inhibition of binding of fluorescent standard peptide, cell free); parameters: species or system human; conditions: for HLA-A2.1 binder class: class assigned from IC50
Protocol: (§1) FIG. 4a. Binding of HA-1^H and HA-1^R peptides to HLA-A2.1. The binding of HA-1^H and HA-1^R peptides were assayed for their ability to inhibit the binding of fluorescent peptide […] (SEQ ID NO: 17) to recombinant HLA-A2.1 and b2-microglobulin in a cell free peptide binding assay. One representative experiment is shown. […] (FIG. 4b.) Reconstitution assay with different concentrations of synthetic HA-1^R peptide with HA-1 specific T cells. The HA-1^R peptide was titrated and preincubated with T2 cells. Three HA-1 specific T cell clones, 5W38, 3HA15 and clone 15 were added and a 4 hr ^51Cr-release assay was performed. Background lysis of T2 by the CTL in the absence of any peptide was for 3HA15 4%, for clone 15 10% and for 5W38 2%. Positive control lysis was for 3HA15 46%, for clone 15 47% and 5W38 48%.
Reconstitution and HLA-A2.1 binding assays were performed to determine the capacity of HA-1^R peptide […] (SEQ ID NO: 5) to bind to HLA-A2.1 and to be recognized by the HA-1 specific T cell clones. […] Different concentrations of […] (SEQ ID NO: 5) were tested in a ^51Cr-release assay with three HA-1 specific T cell clones.
HLA-A2.1 peptide binding assay. A quantitative assay for HLA-A2.1 binding peptides based on the inhibition of binding of the fluorescent labeled standard peptide Hbc 18–27 F to C6 ([…]) (SEQ ID NO: 17) to recombinant HLA-A2.1 protein and B2-microglobulin was used^26,27. In short, HLA-A2.1 concentrations yielding approximately 40–60% bound fluorescent standard peptide were used with 15 pmol/well (150 nM) B2-microglobulin (Sigma). Various doses of the test peptides were coincubated with 100 fmol/well (1 nM) fluorescent standard peptide, HLA-A2.1 and B2-microglobulin for 1 day at room temperature in the dark in a volume of […] in assay.buffer. The percent of MHC-bound fluorescence was determined by gel filtration and the 50% inhibitory dose was deduced for each peptide using one-site competition non-linear regression analysis with the prismgraph software. […]

[2] = tested on: HA-1 specific T cell clones 3HA15, clone 15 and 5W38 (T2 target cells); experiment: 51Cr-release reconstitution assay (CML assay) with peptide-loaded T2 cells and HA-1 specific CTL clones; assay type: cell-based, human
Description: FIG. 2. Sequencing of mH HA-1 peptide by tandem mass spectrometry. (FIG. 2a.) Collision activation dissociation mass spectrum of peptide candidate with m/z of 513. (FIG. 2b.) Reconstitution assay with different concentrations of synthetic mH HA-1 peptide with three HA-1 specific T cell clones, 3HA15, clone 15 and 5W38. Background lysis of T2 by the CTL in the absence of any peptide was for 3HA15 4%, for clone 15 10% and for 5W38 2%. Positive control lysis was for 3HA15 46%, for clone 15 47% and 5W38 48%.
as §1, with “48%. […]” for “48%.”

## VLHDDLLEA
[1]
  HLA-A2.1 binder class: high affinity binders

## VLRDDLLEA
[2]; clone 3HA15 only (one out of three clones showed recognition)
  peptide concentration needed for recognition relative to that for the HA-1^H peptide: 1000 times
[1]
  fold lower binding affinity for HLA-A2.1 versus HA-1^H peptide: 10 fold
  HLA-A2.1 binder class: intermediate binders

## YXTDRVMTV [peptide candidate m/z 550; X stands for Isoleucine or Leucine]
[2]; results not shown
  reconstitution of the HA-1 epitope by synthetic peptide: not able to reconstitute the HA-1 epitope
